Results on 16 molecules are retold here after patent US20230348424A1, “HETEROCYCLIC COMPOUNDS AND METHODS OF USE” (Schrödinger, Inc., priority 2022, published 2023).

Each structure is given as a SMILES string.

Chain of SOS1:KRAS (G12C) interaction (Q07889 564-1049, stated change not applied): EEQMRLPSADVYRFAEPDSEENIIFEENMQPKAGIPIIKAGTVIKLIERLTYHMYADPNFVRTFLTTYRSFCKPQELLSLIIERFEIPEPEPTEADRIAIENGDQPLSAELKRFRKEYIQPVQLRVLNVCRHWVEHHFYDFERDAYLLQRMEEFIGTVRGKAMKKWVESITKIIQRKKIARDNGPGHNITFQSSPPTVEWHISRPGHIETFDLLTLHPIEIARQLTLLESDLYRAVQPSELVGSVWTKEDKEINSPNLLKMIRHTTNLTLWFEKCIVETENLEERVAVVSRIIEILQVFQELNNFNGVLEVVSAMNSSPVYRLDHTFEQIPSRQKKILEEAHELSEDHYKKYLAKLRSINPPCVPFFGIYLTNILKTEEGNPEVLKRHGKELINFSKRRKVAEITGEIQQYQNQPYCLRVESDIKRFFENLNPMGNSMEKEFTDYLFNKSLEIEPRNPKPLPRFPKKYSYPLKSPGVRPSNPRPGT

This assay concerns the target SOS1:KRAS (G12C) interaction (Homo sapiens (Human), UniProt Q07889). In words: SOS1 KRas(G12C) FRET Assay. It counts as binding. The conditions noted are these: 0.5 nM His10-SOS1 (res. 564-1049), 2.5 nM GST-KRAS G12C (res. 1-169), 2 hrs at RT. The essentials: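 GST-KRAS G12C (res. 1-169) at 2.5 nM and His10-SOS1 (res. 564-1049) at 0.5 nM, final, in PBS with 0.1% BSA, 5 mM MgCl2, 100 mM KF, 5 mM DTT and 0.5% DMSO. After 2 h at RT, FRET read at 665/615 nm and normalized to DMSO and no-SOS1 controls. IC50 by non-linear regression.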
`C[C@@H](NC(=O)c1cn(C2(C(F)F)CC2)c(=O)cc1NC1CCN(C)CC1)c1cccc2c(F)coc12` [Example 54, (R)-1-(1-(difluoromethyl)cyclopropyl)-N-(1-(3-fluorobenzofuran-7-yl)ethyl)-4-((1-methylpiperidin-4-yl)amino)-6-oxo-1,6-dihydropyridine-3-carboxamide]: inhibition was half-maximal at 26.6 nM (IC50).

With `C[C@@H](NC(=O)c1cn(C2(C(F)F)CC2)c(=O)cc1N[C@@H]1[C@@H]2CN(C)C[C@@H]21)c1cccc(C(F)F)c1F` [Example 56, N-((R)-1-(3-(difluoromethyl)-2-fluorophenyl)ethyl)-1-(1-(difluoromethyl)cyclopropyl)-4-(((1R,5S,6r)-3-methyl-3-azabicyclo[3.1.0]hexan-6-yl)amino)-6-oxo-1,6-dihydropyridine-3-carboxamide], the IC50 (as a rule, the concentration needed to halve the response being measured) is 34.2 nM. The value for `[2H]C([2H])([2H])N1C[C@@H]2[C@H](C1)[C@H]2Nc1cc(=O)n(C2(C(F)F)CC2)cc1C(=O)N[C@H](C)c1cccc(C(F)F)c1F` [Example 57, N-((R)-1-(3-(difluoromethyl)-2-fluorophenyl)ethyl)-1-(1-(difluoromethyl)cyclopropyl)-4-(((1R,5S,6s)-3-(methyl-d3)-3-azabicyclo[3.1.0]hexan-6-yl)amino)-6-oxo-1,6-dihydropyridine-3-carboxamide] was 28.2 nM; that for `CCN1C[C@@H]2[C@H](C1)[C@H]2Nc1cc(=O)n(C2(C(F)F)CC2)cc1C(=O)N[C@H](C)c1cccc(C(F)F)c1F` [Example 58, N-((R)-1-(3-(difluoromethyl)-2-fluorophenyl)ethyl)-1-(1-(difluoromethyl)cyclopropyl)-4-(((1R,5S,6s)-3-ethyl-3-azabicyclo[3.1.0]hexan-6-yl)amino)-6-oxo-1,6-dihydropyridine-3-carboxamide] was 30.8 nM; that for `CC(C)N1C[C@@H]2[C@H](C1)[C@H]2Nc1cc(=O)n(C2(C(F)F)CC2)cc1C(=O)N[C@H](C)c1cccc(C(F)F)c1F` [Example 59, N-((R)-1-(3-(difluoromethyl)-2-fluorophenyl)ethyl)-1-(1-(difluoromethyl)cyclopropyl)-4-(((1R,5S,6s)-3-isopropyl-3-azabicyclo[3.1.0]hexan-6-yl)amino)-6-oxo-1,6-dihydropyridine-3-carboxamide] was 31.5 nM. Under `C[C@@H](NC(=O)c1cn(C2(C(F)F)CC2)c(=O)cc1N[C@H]1[C@@H]2CN(C3CC3)C[C@@H]21)c1cccc(C(F)F)c1F` [Example 60, 4-(((1R,5S,6s)-3-cyclopropyl-3-azabicyclo[3.1.0]hexan-6-yl)amino)-N-((R)-1-(3-(difluoromethyl)-2-fluorophenyl)ethyl)-1-(1-(difluoromethyl)cyclopropyl)-6-oxo-1,6-dihydropyridine-3-carboxamide] stands 41.2 nM; under `C[C@@H](NC(=O)c1cn(C2(C(F)F)CC2)c(=O)cc1NC1CCN(C2CC2)CC1)c1cccc(C(F)F)c1F` [Example 62, (R)-4-((1-cyclopropylpiperidin-4-yl)amino)-N-(1-(3-(difluoromethyl)-2-fluorophenyl)ethyl)-1-(1-(difluoromethyl)cyclopropyl)-6-oxo-1,6-dihydropyridine-3-carboxamide], 20.1 nM. The value for `C[C@@H](NC(=O)c1cn([C@@H]2C[C@H]2C2CC2)c(=O)cc1N[C@H]1[C@@H]2CN(C)C[C@@H]21)c1cccc(C(F)F)c1F` [Example 71, 1-((1S,2R)-[1,1′-bi(cyclopropan)]-2-yl)-N-((R)-1-(3-(difluoromethyl)-2-fluorophenyl)ethyl)-4-(((1R5S,6s)-3-methyl-3-azabicyclo[3.1.0]hexan-6-yl)amino)-6-oxo-1,6-dihydropyridine-3-carboxamide] was 21.9 nM; that for `C[C@@H](NC(=O)c1cn(C2(C(F)(F)F)CC2)c(=O)cc1NC1CCN(C)CC1)c1cccc(C(F)F)c1F` [Example 75, (R)-N-(1-(3-(difluoromethyl)-2-fluorophenyl)ethyl)-4-((1-methylpiperidin-4-yl)amino)-6-oxo-1-(1-(trifluoromethyl)cyclopropyl)-1,6-dihydropyridine-3-carboxamide] was 15.5 nM. `C[C@@H](NC(=O)c1cn(C2(C(F)F)CCC2)c(=O)cc1NC1CCN(C)CC1)c1cccc(C(F)F)c1F` [Example 76, (R)-N-(1-(3-(difluoromethyl)-2-fluorophenyl)ethyl)-1-(1-(difluoromethyl)cyclobutyl)-4-((1-methylpiperidin-4-yl)amino)-6-oxo-1,6-dihydropyridine-3-carboxamide]: half-maximal inhibition (IC50) required 12.5 nM.

The molecule `C[C@@H](NC(=O)c1cn(C2(CF)CC2)c(=O)cc1NC1CCN(C)CC1)c1cccc(C(F)F)c1F` [Example 77, (R)-N-(1-(3-(difluoromethyl)-2-fluorophenyl)ethyl)-1-(1-(fluoromethyl)cyclopropyl)-4-((1-methylpiperidin-4-yl)amino)-6-oxo-1,6-dihydropyridine-3-carboxamide] came in with a half-inhibitory concentration (IC50) of 13.7 nM. This IC50 and that of the molecule before are within 1.5-fold of each other. Regarding `C[C@@H](NC(=O)c1cn(C2(C)CN(C(=O)C3CC3)C2)c(=O)cc1NC1CCN(C)CC1)c1cccc(C(F)F)c1F` [Example 78, (R)-1-(1-(cyclopropanecarbonyl)-3-methylazetidin-3-yl)-N-(1-(3-(difluoromethyl)-2-fluorophenyl)ethyl)-4-((1-methylpiperidin-4-yl)amino)-6-oxo-1,6-dihydropyridine-3-carboxamide], the IC50 stood at 0.9 nM.

`C[C@@H](NC(=O)c1cn(C23CC(C2)C3)c(=O)cc1N[C@H]1[C@@H]2CNC[C@@H]21)c1cccc(C(F)F)c1F` [Example 89, 4-(((1R,5S,6s)-3-azabicyclo[3.1.0]hexan-6-yl)amino)-1-(bicyclo[1. 1.1]pentan-1-yl)-N-((R)-1-(3-(difluoromethyl)-2-fluorophenyl)ethyl)-6-oxo-1,6-dihydropyridine-3-carboxamide] registered an IC50 of 22.9 nM. The value for `C[C@@H](NC(=O)c1cn(C2CCC2)c(=O)cc1N[C@H]1[C@@H]2CN(C)C[C@@H]21)c1cccc(C(F)F)c1F` [Example 150, 1-cyclobutyl-N-((R)-1-(3-(difluoromethyl)-2-fluorophenyl)ethyl)-4-(((1R,5S,6s)-3-methyl-3-azabicyclo[3.1.0]hexan-6-yl)amino)-6-oxo-1,6-dihydropyridine-3-carboxamide] was 12.3 nM; that for `Cc1c([C@@H](C)NC(=O)c2cn(C3CCOCC3)c(=O)cc2SC2CCNCC2)cccc1C(F)(F)F` [Example 157, (R)-N-(1-(2-methyl-3-(trifluoromethyl)phenyl)ethyl)-6-oxo-4-(piperidin-4-ylthio)-1-(tetrahydro-2H-pyran-4-yl)-1,6-dihydropyridine-3-carboxamide] was 218 nM; that for `CN1C[C@@H]2[C@H](C1)[C@H]2Nc1cc(=O)n(C2(C(F)F)CC2)cc1C(=O)N[C@@H](c1cccc(C(F)F)c1F)C(F)F` [Example 158, N-((S)-1-(3-(difluoromethyl)-2-fluorophenyl)-2,2-difluoroethyl)-1-(1-(difluoromethyl)cyclopropyl)-4-(((1R,5S,6s)-3-methyl-3-azabicyclo[3.1.0]hexan-6-yl)amino)-6-oxo-1,6-dihydropyridine-3-carboxamide] was 82 nM.
